Patent US12180187B2, “1-phenyl-5-azinylpyrazolyl-3-oxyalkyl acids and their use for controlling unwanted plant growth” (BAYER AKTIENGESELLSCHAFT, priority 2019, dated 2024)

Tests used:
SETVI [1] = assay: Pre-emergence action at 320 g/ha against SETVI; format: in vivo, Setaria viridis; details: visual scoring after about 3 weeks vs untreated controls
Method in brief: (§1)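 Weed and crop seeds sown in pots and covered with soil; WP or EC formulations sprayed pre-emergence onto the soil surface at 320 g/ha with 0.5% additive in 600 l/ha water. Kept in greenhouse; after about 3 weeks activity scored visually as % versus untreated controls (100% = plants dead, 0% = as control).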

POLCO [2] = assay: Pre-emergence action at 320 g/ha against POLCO; format: in vivo, Fallopia convolvulus (Polygonum convolvulus); details: visual scoring after about 3 weeks vs untreated controls
Method in brief: as §1

LOLRI [3] = assay: Pre-emergence action at 320 g/ha against LOLRI; format: in vivo, Lolium rigidum; details: visual scoring after about 3 weeks vs untreated controls
Method in brief: as §1

VERPE [4] = assay: Pre-emergence action at 320 g/ha against VERPE; format: in vivo, Veronica persica; details: visual scoring after about 3 weeks vs untreated controls
Method in brief: as §1

AVEFA [5] = assay: Pre-emergence action at 320 g/ha against AVEFA; format: in vivo; details: visual scoring after about 3 weeks vs untreated controls
Method in brief: as §1

PHBPU = assay: Pre-emergence action at 320 g/ha against PHBPU; format: in vivo; details: visual scoring after about 3 weeks vs untreated controls
Excerpt: b) Seeds of monocotyledonous and dicotyledonous weed plants and crop plants are placed in plastic or organic planting pots and covered with soil. The compounds of the invention, formulated in the form of wettable powders (WP) or as emulsion concentrates (EC), are then applied onto the surface of the covering soil as aqueous suspension or emulsion with addition of 0.5% additive at a water application rate of 600 l/ha (converted). After the treatment, the pots are placed in a greenhouse and kept under good growth conditions for the trial plants. After about 3 weeks, the effect of the preparations is scored visually in comparison with untreated controls as percentages. For example, 100% activity=the plants have died, 0% activity=like control plants. Tables 13 to 26 below show the effects of selected compounds of the general formula (I) on various harmful plants and at an application rate corresponding to 320 g/ha, which were obtained by the experimental procedure mentioned above.

AMARE [6] = assay: Pre-emergence action at 320 g/ha against AMARE; format: in vivo, Amaranthus retroflexus; details: visual scoring after about 3 weeks vs untreated controls
Method in brief: as §1

DIGSA = assay: Pre-emergence action at 320 g/ha against DIGSA; format: in vivo, Digitaria sanguinalis; details: visual scoring after about 3 weeks vs untreated controls
Method in brief: as §1

ALOMY [7] = assay: Pre-emergence action at 320 g/ha against ALOMY; format: in vivo, Alopecurus myosuroides; details: scored visually after about 3 weeks vs untreated controls (100% = plants have died)
Method in brief: as §1

VIOTR [8] = assay: Pre-emergence action at 320 g/ha against VIOTR; format: in vivo, Viola tricolor; details: dosage 320 g/ha
Method in brief: as §1

MATIN [9] = assay: Pre-emergence action at 320 g/ha against MATIN; format: in vivo, Tripleurospermum inodorum (Matricaria inodora); details: visual scoring after about 3 weeks vs untreated controls
Method in brief: as §1

ECHGC = assay: Pre-emergence action at 320 g/ha against ECHGC; format: in vivo, Echinochloa crus-galli; details: visual scoring after about 3 weeks vs untreated controls
Method in brief: as §1

STEME [10] = assay: Post-emergence action against STEME, 1.28 kg/ha; format: in vivo, Stellaria media; details: dosage 1280 g/ha, visual rating about 3 weeks after treatment vs untreated controls (100% = plants died)
Method in brief: (§2)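 Weeds grown in sandy loam in a greenhouse were sprayed at the one-leaf stage, 2–3 weeks after sowing, with WP or EC formulations in water containing 0.5% additive at 600 L/ha. About 3 weeks later, damage was scored visually versus untreated controls (0% = like control, 100% = dead).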

AMARE [11] = assay: Post-emergence action against AMARE, 1.28 kg/ha; format: in vivo, Amaranthus retroflexus; details: dosage 1280 g/ha, visual rating about 3 weeks after treatment vs untreated controls (100% = plants died)
Method in brief: as §2

AMARE [12] = assay: Pre-emergence action against AMARE, 1280 g/ha; format: in vivo, Amaranthus retroflexus; details: scored visually after about 3 weeks vs untreated controls (100% = plants have died)
Method in brief: (§3)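 In greenhouse pots of sandy loam, sown weed seeds were covered with soil and treated pre-emergence with the compound in water (600 L/ha, 0.5% additive). Efficacy was assessed visually as percent of untreated control after about 3 weeks.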

VIOTR [13] = assay: Post-emergence action at 320 g/ha against VIOTR; format: in vivo, Viola tricolor; details: visual rating about 3 weeks after treatment vs untreated controls
Excerpt: (§4) Accordingly, the compounds of the invention have good herbicidal action against a broad spectrum of weed grasses and broad-leaved weeds and are therefore suitable for controlling unwanted vegetation by the post-emergence method. • b) Seeds of monocotyledonous and dicotyledonous weeds and crop plants are placed in sandy loam in plastic or organic planting pots, covered with soil and cultivated in a greenhouse under controlled growth conditions. 2 to 3 weeks after sowing, the test plants are treated at the one-leaf stage. The compounds of the invention, formulated in the form of wettable powders (WP) or as emulsion concentrates (EC), are then sprayed onto the green parts of the plants as aqueous suspension or emulsion with addition of 0.5% additive at a water application rate of 600 l/ha (converted). After the test plants have been kept in the greenhouse under optimum growth conditions for about 3 weeks, the activity of the preparations is rated visually in comparison to untreated controls. For example, 100% activity=the plants have died, 0% activity=like control plants. Tables 39 to 49 below show the effects of selected compounds of the general formula (I) according to Tables 1 and 2 on various harmful plants and at an application rate corresponding to 320 g/ha, which were obtained by the experimental procedure mentioned above.

MATIN [14] = assay: Post-emergence action against MATIN, 1.28 kg/ha; format: in vivo, Tripleurospermum inodorum (Matricaria inodora); details: dosage 1280 g/ha, visual rating about 3 weeks after treatment vs untreated controls (100% = plants died)
Method in brief: as §2

LOLRI [15] = assay: Post-emergence action against LOLRI, 1.28 kg/ha; format: in vivo, Lolium rigidum; details: dosage 1280 g/ha, visual rating about 3 weeks after treatment vs untreated controls
Method in brief: as §2

ECHCG [16] = assay: Pre-emergence action against ECHCG, 1280 g/ha; format: in vivo, Echinochloa crus-galli; details: visual scoring after about 3 weeks vs untreated controls, 100% = plants have died, 0% = like control plants
Method in brief: as §3

POAAN [17] = assay: Pre-emergence action against POAAN, 1280 g/ha; format: in vivo, Poa annua; details: visual scoring after about 3 weeks vs untreated controls, 100% = plants have died, 0% = like control plants
Method in brief: as §3

POAAN [18] = assay: Post-emergence action against POAAN, 1.28 kg/ha; format: in vivo, Poa annua; details: dosage 1280 g/ha, visual rating about 3 weeks after treatment vs untreated controls
Method in brief: as §2

ECHCG [19] = assay: Post-emergence action against ECHCG, 1.28 kg/ha; format: in vivo, Echinochloa crus-galli; details: dosage 1280 g/ha, visual rating about 3 weeks after treatment vs untreated controls
Method in brief: as §2

AVEFA [20] = assay: Post-emergence action at 320 g/ha against AVEFA; format: in vivo; details: visual rating about 3 weeks after treatment vs untreated controls
Excerpt: as §4

VERPE [21] = assay: Pre-emergence action against VERPE, 1280 g/ha; format: in vivo, Veronica persica; details: scored visually after about 3 weeks vs untreated controls (100% = plants have died)
Method in brief: as §3

AMARE [22] = assay: Post-emergence action at 320 g/ha against AMARE; format: in vivo, Amaranthus retroflexus; details: visual rating about 3 weeks after treatment vs untreated controls
Excerpt: as §4

ALOMY [23] = assay: Post-emergence action against ALOMY, 320 g/ha; format: in vivo, Alopecurus myosuroides; details: dosage 320 g/ha, visual rating about 3 weeks after treatment vs untreated controls (100% = plants died)
Excerpt: as §4

MATIN [24] = assay: Pre-emergence action against MATIN, 1280 g/ha; format: in vivo, Tripleurospermum inodorum (Matricaria inodora); details: scored visually after about 3 weeks vs untreated controls (100% = plants have died)
Method in brief: as §3

POLCO [25] = assay: Post-emergence action at 320 g/ha against POLCO; format: in vivo, Fallopia convolvulus (Polygonum convolvulus); details: visual rating about 3 weeks after treatment vs untreated controls
Excerpt: as §4

LOLRI [26] = assay: Pre-emergence action against LOLRI, 1280 g/ha; format: in vivo, Lolium rigidum; details: visual scoring after about 3 weeks vs untreated controls, 100% = plants have died, 0% = like control plants
Method in brief: as §3

STEME [27] = assay: Pre-emergence action against STEME, 1280 g/ha; format: in vivo, Stellaria media; details: scored visually after about 3 weeks vs untreated controls (100% = plants have died)
Method in brief: as §3

SETVI [28] = assay: Pre-emergence action against SETVI, 1280 g/ha; format: in vivo, Setaria viridis; details: visual scoring after about 3 weeks vs untreated controls, 100% = plants have died, 0% = like control plants
Method in brief: as §3

VERPE [29] = assay: Post-emergence action against VERPE, 1.28 kg/ha; format: in vivo, Veronica persica; details: dosage 1280 g/ha, visual rating about 3 weeks after treatment vs untreated controls (100% = plants died)
Method in brief: as §2

SETVI [30] = assay: Post-emergence action against SETVI, 1.28 kg/ha; format: in vivo, Setaria viridis; details: dosage 1280 g/ha, visual rating about 3 weeks after treatment vs untreated controls
Method in brief: as §2

O=C(O)COc1nn(-c2ccccc2F)c(-c2ccc(F)nc2)c1F [VII-115]
100%: Pre-emergence action against SETVI in % (SETVI [1]) | Pre-emergence action against AMARE in % (AMARE [6]) | Pre-emergence action against DIGSA in % (DIGSA) | Pre-emergence action at 320 g/ha against ALOMY in % (ALOMY [7]) | Pre-emergence action against VIOTR in % (VIOTR [8])
90%: Pre-emergence action against LOLRI in % (LOLRI [3]) | Pre-emergence action against VERPE in % (VERPE [4]) | Pre-emergence action against AVEFA in % (AVEFA [5]) | Pre-emergence action against PHBPU in % (PHBPU)
80%: Pre-emergence action against POLCO in % (POLCO [2])

C[C@@H](Oc1nn(-c2ccccc2F)c(-c2cncc(F)c2)c1Br)C(=O)O [VII-128]
90%: Pre-emergence action against MATIN in % (MATIN [9]) | Pre-emergence action against POLCO in % (POLCO [2]) | Pre-emergence action against ECHGC in % (ECHGC) | Pre-emergence action against PHBPU in % (PHBPU)
100%: Pre-emergence action against SETVI in % (SETVI [1]) | Pre-emergence action against LOLRI in % (LOLRI [3]) | Pre-emergence action against VERPE in % (VERPE [4]) | Pre-emergence action against AMARE in % (AMARE [6]) | Pre-emergence action against DIGSA in % (DIGSA) | Pre-emergence action at 320 g/ha against ALOMY in % (ALOMY [7]) | Pre-emergence action against VIOTR in % (VIOTR [8])
80%: Pre-emergence action against AVEFA in % (AVEFA [5])

CCOC(=O)COc1nn(-c2ccccc2F)c(-c2ccnc(F)c2)c1Br [VIII-002]
100%: Post-emergence action against STEME (STEME [10]) | Pre-emergence action against SETVI in % (SETVI [1]) | Post-emergence action against AMARE (AMARE [11]) | Pre-emergence action against AMARE (AMARE [12]) | Post-emergence action against LOLRI (LOLRI [15]) | Pre-emergence action against ECHCG (ECHCG [16]) | Pre-emergence action against POAAN (POAAN [17]) | Post-emergence action against POAAN (POAAN [18]) | Post-emergence action against ECHCG (ECHCG [19]) | Pre-emergence action against AMARE in % (AMARE [6]) | Pre-emergence action against DIGSA in % (DIGSA) | Pre-emergence action against MATIN (MATIN [24]) | Pre-emergence action against LOLRI (LOLRI [26]) | Pre-emergence action against SETVI (SETVI [28]) | Pre-emergence action against VIOTR in % (VIOTR [8])
90%: Pre-emergence action against POLCO in % (POLCO [2]) | Post-emergence action against MATIN (MATIN [14]) | Post-emergence action against AVEFA in % (AVEFA [20]) | Pre-emergence action against VERPE (VERPE [21]) | Post-emergence action against ALOMY (ALOMY [23]) | Pre-emergence action at 320 g/ha against ALOMY in % (ALOMY [7]) | Pre-emergence action against STEME (STEME [27]) | Post-emergence action against VERPE (VERPE [29]) | Post-emergence action against SETVI (SETVI [30])
80%: Pre-emergence action against VERPE in % (VERPE [4]) | Post-emergence action against VIOTR in % (VIOTR [13]) | Post-emergence action against AMARE in % (AMARE [22]) | Post-emergence action against POLCO in % (POLCO [25])
